Measured values from ChEMBL document CHEMBL1201862, “PubChem BioAssay data set” (2004).
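48-hour exposure; five concentrations; linearly interpolated endpoints. Here, GI50 denotes the concentration required for 50% inhibition of growth.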 Calls of active or inactive are those of the source. Rule as the data show it: active = GI50 up to about 1.1 µM and inactive = higher.

Legend:
Experiment in all cases: inhibition of tumour cell growth, NCI panel, 48 h
A549 = test system: A549
IGROV-1 = test system: IGROV-1
SN12C = test system: SN12C
Malme-3M = test system: Malme-3M
786-0 = test system: 786-0
NCI-H226 = test system: NCI-H226
HOP-18 = test system: HOP-18
OVCAR-8 = test system: OVCAR-8
HCT-15 = test system: HCT-15
SK-MEL-28 = test system: SK-MEL-28
CCRF-CEM = test system: CCRF-CEM
NCI-H522 = test system: NCI-H522
HL-60 = test system: HL-60
MOLT-4 = test system: MOLT-4
K562 = test system: K562
LXFL 529 = test system: LXFL 529
DMS-114 = test system: DMS-114
ACHN = test system: ACHN
TK-10 = test system: TK-10
LOX IMVI = test system: LOX IMVI
HT-29 = test system: HT-29
SNB-78 = test system: SNB-78
SK-MEL-5 = test system: SK-MEL-5
UO-31 = test system: UO-31
HOP-62 = test system: HOP-62
U-251 = test system: U-251
UACC-62 = test system: UACC-62
SK-OV-3 = test system: SK-OV-3
DMS-273 = test system: DMS-273
COLO 205 = test system: COLO 205
UACC-257 = test system: UACC-257
RPMI-8226 = test system: RPMI-8226
NCI-H23 = test system: NCI-H23
SR = test system: SR
A498 = test system: A498
SK-MEL-2 = test system: SK-MEL-2
DLD-1 = test system: DLD-1
EKVX = test system: EKVX
KM12 = test system: KM12
SF-295 = test system: SF-295
M14 = test system: M14
RXF 631 = test system: RXF 631
CAKI-1 = test system: CAKI-1
OVCAR-5 = test system: OVCAR-5
KM-20L2 = test system: KM-20L2
M19-MEL = test system: M19-MEL
SW-620 = test system: SW-620
SF-268 = test system: SF-268
RXF 393 = test system: RXF 393
NCI-H460 = test system: NCI-H460
SNB-19 = test system: SNB-19
OVCAR-3 = test system: OVCAR-3
SF-539 = test system: SF-539
OVCAR-4 = test system: OVCAR-4
SNB-75 = test system: SNB-75
HCT-116 = test system: HCT-116
XF498 = test system: XF498
HOP-92 = test system: HOP-92
HCC 2998 = test system: HCC 2998

## C/C(=N\N(C)C)C(CN1CCCCC1)C(c1ccccc1)c1c(O)c2ccccc2oc1=O (centres undefined)
A549
  GI50: > 100 µM (inactive)
IGROV-1
  GI50: > 100 µM (inactive)
SN12C
  GI50: > 100 µM (inactive)
Malme-3M
  GI50: > 100 µM (inactive)
786-0
  GI50: > 100 µM (inactive)
NCI-H226
  GI50: 37.5 µM (inactive)
HOP-18
  GI50: > 100 µM (inactive)
OVCAR-8
  GI50: > 100 µM (inactive)
HCT-15
  GI50: > 100 µM
SK-MEL-28
  GI50: > 100 µM (inactive)
CCRF-CEM
  GI50: > 100 µM (inactive)
NCI-H522
  GI50: > 100 µM (inactive)
HL-60
  GI50: > 100 µM (inactive)
MOLT-4
  GI50: > 100 µM (inactive)
K562
  GI50: > 100 µM (inactive)
LXFL 529
  GI50: > 100 µM (inactive)
DMS-114
  GI50: > 100 µM (inactive)
ACHN
  GI50: > 100 µM (inactive)
TK-10
  GI50: > 100 µM (inactive)
LOX IMVI
  GI50: > 100 µM (inactive)
HT-29
  GI50: > 100 µM (inactive)
SNB-78
  GI50: > 100 µM (inactive)
SK-MEL-5
  GI50: > 100 µM (inactive)
UO-31
  GI50: 32.6 µM (inactive)
HOP-62
  GI50: > 100 µM (inactive)
U-251
  GI50: > 100 µM (inactive)
UACC-62
  GI50: 80.4 µM (inactive)
SK-OV-3
  GI50: 97.5 µM (inactive)
DMS-273
  GI50: > 100 µM (inactive)
COLO 205
  GI50: > 100 µM (inactive)
UACC-257
  GI50: > 100 µM (inactive)
RPMI-8226
  GI50: > 100 µM (inactive)
NCI-H23
  GI50: > 100 µM (inactive)
SR
  GI50: > 100 µM (inactive)
A498
  GI50: > 100 µM (inactive)
SK-MEL-2
  GI50: > 100 µM (inactive)
DLD-1
  GI50: > 100 µM (inactive)
EKVX
  GI50: > 100 µM (inactive)
KM12
  GI50: > 100 µM (inactive)
SF-295
  GI50: > 100 µM (inactive)
M14
  GI50: > 100 µM (inactive)
RXF 631
  GI50: > 100 µM (inactive)
CAKI-1
  GI50: > 100 µM (inactive)
OVCAR-5
  GI50: > 100 µM (inactive)
KM-20L2
  GI50: > 100 µM (inactive)
M19-MEL
  GI50: > 100 µM (inactive)
SW-620
  GI50: > 100 µM (inactive)
SF-268
  GI50: > 100 µM (inactive)
RXF 393
  GI50: > 100 µM (inactive)
NCI-H460
  GI50: > 100 µM (inactive)
SNB-19
  GI50: > 100 µM (inactive)
OVCAR-3
  GI50: > 100 µM (inactive)
SF-539
  GI50: > 100 µM (inactive)
OVCAR-4
  GI50: > 100 µM (inactive)
SNB-75
  GI50: 28.3 µM (inactive)
HCT-116
  GI50: > 100 µM (inactive)
XF498
  GI50: 74.1 µM (inactive)

## Oc1cccc2nc3cc(CN4CCOCC4)c(CN4CCOCC4)cc3nc12
A549
  GI50: 40.5 µM (inactive)
IGROV-1
  GI50: > 100 µM (inactive)
SN12C
  GI50: 79.3 µM (inactive)
Malme-3M
  GI50: 57.5 µM (inactive)
786-0
  GI50: 59.7 µM (inactive)
NCI-H226
  GI50: 68.7 µM (inactive)
HOP-18
  GI50: 59.7 µM (inactive)
OVCAR-8
  GI50: 44.7 µM (inactive)
HCT-15
  GI50: 37.4 µM
SK-MEL-28
  GI50: > 100 µM (inactive)
CCRF-CEM
  GI50: 44.9 µM (inactive)
NCI-H522
  GI50: 30.9 µM (inactive)
HL-60
  GI50: 33.3 µM (inactive)
MOLT-4
  GI50: 31.9 µM (inactive)
K562
  GI50: 34.3 µM (inactive)
LXFL 529
  GI50: 48.1 µM (inactive)
ACHN
  GI50: 47.8 µM (inactive)
TK-10
  GI50: > 100 µM (inactive)
LOX IMVI
  GI50: 38.3 µM (inactive)
HT-29
  GI50: 48.8 µM (inactive)
SNB-78
  GI50: > 100 µM (inactive)
SK-MEL-5
  GI50: 24.4 µM (inactive)
UO-31
  GI50: 29.6 µM (inactive)
HOP-62
  GI50: 52 µM (inactive)
U-251
  GI50: 33.6 µM (inactive)
UACC-62
  GI50: 40.2 µM (inactive)
SK-OV-3
  GI50: 50.6 µM (inactive)
DMS-273
  GI50: 54.7 µM (inactive)
COLO 205
  GI50: 56.9 µM (inactive)
UACC-257
  GI50: > 100 µM (inactive)
NCI-H23
  GI50: > 100 µM (inactive)
SR
  GI50: 40.2 µM (inactive)
A498
  GI50: > 100 µM (inactive)
SK-MEL-2
  GI50: > 100 µM (inactive)
DLD-1
  GI50: 61 µM (inactive)
HOP-92
  GI50: 46.7 µM (inactive)
EKVX
  GI50: > 100 µM (inactive)
KM12
  GI50: 67 µM (inactive)
SF-295
  GI50: 45.8 µM (inactive)
M14
  GI50: 18.7 µM (inactive)
RXF 631
  GI50: 56.4 µM (inactive)
CAKI-1
  GI50: > 100 µM (inactive)
OVCAR-5
  GI50: 43.8 µM (inactive)
KM-20L2
  GI50: 48.9 µM (inactive)
M19-MEL
  GI50: 25.9 µM (inactive)
SW-620
  GI50: 57.3 µM (inactive)
HCC 2998
  GI50: 50.8 µM (inactive)
SF-268
  GI50: 48.2 µM (inactive)
RXF 393
  GI50: 77.3 µM (inactive)
NCI-H460
  GI50: 54.3 µM (inactive)
SNB-19
  GI50: > 100 µM (inactive)
OVCAR-3
  GI50: 42.2 µM (inactive)
SF-539
  GI50: 38.3 µM (inactive)
OVCAR-4
  GI50: 67.3 µM (inactive)
SNB-75
  GI50: > 100 µM (inactive)
HCT-116
  GI50: 52.2 µM (inactive)
XF498
  GI50: > 100 µM (inactive)
